Test results reported in patent publication US9447075B2, “Pyridazine derivatives as EAAT2 activators” (The Brigham and Women's Hospital, Inc., priority 2011, dated 2016).

Test system: EAAT2
Assay: EAAT2 protein levels in PA-EAAT2 cells by Western blot
Assay type: cell-based, human
Protocol: All of the derivates of 1 were initially evaluated in PA-EAAT2 cells^3 (a primary astrocyte line stably expressing EAAT2 mRNAs) following compound (10 μM) incubation for 4 and 24 h before harvesting and measuring EAAT2 levels by Western blot analysis. The fold increases in EAAT2 protein levels relative to DMSO controls are reported (Tables 1-4).
Characterization and efficacy studies of a compound, Compound 212320 (FIG. 6A) is shown. […] In the absence of serum, PA-EAAT2 cells express low amounts of EAAT2 protein, although the recombinant EAAT2 mRNA are expressed (translational silencing); however, EAAT2 protein levels are increased when an activator is added to the culture (translational activation). This cell line was used for high-throughput screening to identify EAAT2 translational activators. To prioritize candidate compounds, we initially evaluated activation of EAAT2 protein in PA-EAAT2 cells. Promising compounds were further evaluated in primary dissociated neuron and astrocyte mixed cultures and then in mice. FIG. 6 presents the characterization of Compound 212320 in PA-EAAT2 cells. Compound 212320 increased EAAT2 protein levels in a dose—(FIG. 6B) and time—(FIG. 6C) dependent manner. Importantly, the induction occurred in a short amount of time (within 1-2 hr) and was sustained even up to 72 hr (data not show). Additionally, induction occurred at low nanomolar concentrations. […] (FIG. 6D).

SMILES: Cc1ccccc1CSc1ccc(-c2ccccn2)nn1 [Compound 7-4]
- Concentrations at which EAAT2 induction occurred (PA-EAAT2 cells): low nanomolar
- Time in which EAAT2 induction occurred (PA-EAAT2 cells): 1 to 2 h
- Time up to which EAAT2 induction was sustained (PA-EAAT2 cells, data not shown): up to 72 hr
- EAAT2 protein levels (PA-EAAT2 cells, dose- and time-dependent manner (FIG. 6B, 6C)): increased
- Fold increase for EAAT2, 4 h (compound 10 μM, 4 h incubation, PA-EAAT2 cells, relative to DMSO controls, na = not active): 1.7 ± 0.1 fold
- Fold increase for EAAT2, 24 h (compound 10 μM, 24 h incubation, PA-EAAT2 cells, relative to DMSO controls, na = not active): 3.5 ± 0.3 fold
- SAR comparison of activity on EAAT2 protein levels, in words (relative to parent/comparator analogue, Tables 1-4): increased potency
